Results taken from article PMC5218480 (PLoS ONE, 2017).

System: MV-4-11 cells
Assay: Gene expression microarray analysis (Affymetrix PrimeView) and GSEA
Assay type: cell-based, human
Parameters: RFU PODN (11730768_x_at) / Fold change /veh PODN (11730768_x_at) / RFU LINC00158 (11744669_a_at) / Fold change /veh LINC00158 (11744669_a_at) / RFU DUSP10 (11751237_a_at) / Fold change /veh DUSP10 (11751237_a_at) / RFU ID3 (11757404_x_at) / Fold change /veh ID3 (11757404_x_at) / RFU PLEKHG5 (11737974_s_at) / Fold change /veh PLEKHG5 (11737974_s_at) / RFU LRRC4B (11730491_at) / Fold change /veh LRRC4B (11730491_at) / RFU GIMAP4 (11747438_a_at) / Fold change /veh GIMAP4 (11747438_a_at) / RFU KRT8 (11758183_x_at) / Fold change /veh KRT8 (11758183_x_at) / RFU CNN1 (11734310_a_at) / Fold change /veh CNN1 (11734310_a_at) / RFU VPS37D (11726825_at) / Fold change /veh VPS37D (11726825_at) / RFU C10orf10 (11716522_x_at) / Fold change /veh C10orf10 (11716522_x_at) / RFU KIR2DL2 /// KIR2DL4 /// KIR2DL5A /// KIR2DL5B /// KIR2DS1 /// KIR2DS2 /// KIR2DS3 /// KIR2DS4 /// KIR3DL3 /// KIR3DL3 /// KIR3DS1 (11738374_at) / Fold change /veh KIR2DL2 /// KIR2DL4 /// KIR2DL5A /// KIR2DL5B /// KIR2DS1 /// KIR2DS2 /// KIR2DS3 /// KIR2DS4 /// KIR3DL3 /// KIR3DL3 /// KIR3DS1 (11738374_at) / RFU C1QL1 (11718748_at) / Fold change /veh C1QL1 (11718748_at) / RFU TMPRSS4 (11747572_a_at) / Fold change /veh TMPRSS4 (11747572_a_at) / RFU HAMP (11756126_x_at) / Fold change /veh HAMP (11756126_x_at) / RFU RNFT2 (11725882_a_at) / Fold change /veh RNFT2 (11725882_a_at) / RFU NR4A2 (11747474_a_at) / Fold change /veh NR4A2 (11747474_a_at) / RFU ABCC12 (11746883_a_at) / Fold change /veh ABCC12 (11746883_a_at) / RFU TMEM136 (11760407_x_at) / Fold change /veh TMEM136 (11760407_x_at) / RFU CLDN22 /// WWC2 (11732394_at) / Fold change /veh CLDN22 /// WWC2 (11732394_at) / RFU HLA-DPB1 (11760878_x_at) / Fold change /veh HLA-DPB1 (11760878_x_at) / RFU SPINT1 (11716480_a_at) / Fold change /veh SPINT1 (11716480_a_at) / RFU GAP43 (11754022_s_at) / Fold change /veh GAP43 (11754022_s_at) / RFU A4GNT (11735810_at) / Fold change /veh A4GNT (11735810_at) / RFU PRB3 (11715151_x_at) / Fold change /veh PRB3 (11715151_x_at) / RFU TUBB4B (11761932_at) / Fold change /veh TUBB4B (11761932_at) / RFU CAPN14 (11732068_a_at) / Fold change /veh CAPN14 (11732068_a_at) / RFU TMCC2 (11721928_a_at) / Fold change /veh TMCC2 (11721928_a_at) / RFU IRGQ (11745062_a_at) / Fold change /veh IRGQ (11745062_a_at) / RFU FAM174B (11720279_a_at) / Fold change /veh FAM174B (11720279_a_at) / RFU TMPRSS4 (11748680_a_at) / Fold change /veh TMPRSS4 (11748680_a_at) / RFU FAM212B (11763350_a_at) / Fold change /veh FAM212B (11763350_a_at) / RFU PLEKHG5 (11743358_a_at) / Fold change /veh PLEKHG5 (11743358_a_at) / RFU ZSCAN30 (11745921_a_at) / Fold change /veh ZSCAN30 (11745921_a_at) / RFU CMKLR1 (11741424_a_at) / Fold change /veh CMKLR1 (11741424_a_at) / RFU LOC101060620 /// MAPK8IP1 (11723275_at) / Fold change /veh LOC101060620 /// MAPK8IP1 (11723275_at) / RFU SPTSSB (11747773_x_at) / Fold change /veh SPTSSB (11747773_x_at) / RFU PRSS12 (11739890_at) / Fold change /veh PRSS12 (11739890_at) / RFU BIN1 (11741810_x_at) / Fold change /veh BIN1 (11741810_x_at) / RFU WNT11 (11732464_a_at) / Fold change /veh WNT11 (11732464_a_at) / RFU C10orf10 (11716521_a_at) / Fold change /veh C10orf10 (11716521_a_at) / RFU C5orf56 (11738089_at) / Fold change /veh C5orf56 (11738089_at) / RFU CYB561 (11721691_x_at) / Fold change /veh CYB561 (11721691_x_at) / RFU ANKRD19P (11752326_a_at) / Fold change /veh ANKRD19P (11752326_a_at) / RFU OR2T12 /// OR2T33 /// OR2T8 (11738714_s_at) / Fold change /veh OR2T12 /// OR2T33 /// OR2T8 (11738714_s_at) / RFU VCAN (11748164_a_at) / Fold change /veh VCAN (11748164_a_at) / RFU JSRP1 (11732532_at) / Fold change /veh JSRP1 (11732532_at) / RFU KRTAP10-11 (11738290_x_at) / Fold change /veh KRTAP10-11 (11738290_x_at) / RFU MYO3A (11730013_a_at) / Fold change /veh MYO3A (11730013_a_at) / RFU EBF3 (11725865_a_at) / Fold change /veh EBF3 (11725865_a_at) / RFU CAMK2N1 (11719241_x_at) / Fold change /veh CAMK2N1 (11719241_x_at) / RFU C5orf56 (11738088_a_at) / Fold change /veh C5orf56 (11738088_a_at) / RFU OLFML3 (11715873_a_at) / Fold change /veh OLFML3 (11715873_a_at) / RFU LOC100653217 /// NTM (11731650_a_at) / Fold change /veh LOC100653217 /// NTM (11731650_a_at) / RFU MAPK11 (11762145_a_at) / Fold change /veh MAPK11 (11762145_a_at) / RFU FIZ1 (11724087_x_at) / Fold change /veh FIZ1 (11724087_x_at) / RFU OASL (11726364_x_at) / Fold change /veh OASL (11726364_x_at) / RFU SOX15 (11748057_x_at) / Fold change /veh SOX15 (11748057_x_at) / RFU CD79A (11719716_a_at) / Fold change /veh CD79A (11719716_a_at) / RFU HIST1H1D (11736915_at) / Fold change /veh HIST1H1D (11736915_at) / RFU CASKIN2 (11723855_a_at) / Fold change /veh CASKIN2 (11723855_a_at) / RFU LOC730098 (11760151_x_at) / Fold change /veh LOC730098 (11760151_x_at) / RFU OR4N2 (11742367_at) / Fold change /veh OR4N2 (11742367_at) / RFU PRRT2 (11749266_a_at) / Fold change /veh PRRT2 (11749266_a_at) / RFU SNX32 (11753110_a_at) / Fold change /veh SNX32 (11753110_a_at) / RFU CDHR5 (11726645_a_at) / Fold change /veh CDHR5 (11726645_a_at) / RFU RCAN1 (11760418_a_at) / Fold change /veh RCAN1 (11760418_a_at) / RFU FAM167A (11723789_a_at) / Fold change /veh FAM167A (11723789_a_at) / RFU FAM26E (11764081_at) / Fold change /veh FAM26E (11764081_at) / RFU ISYNA1 (11749810_s_at) / Fold change /veh ISYNA1 (11749810_s_at) / RFU ACY1 (11761880_at) / Fold change /veh ACY1 (11761880_at) / RFU 11764098_at / Fold change /veh 11764098_at / RFU SAMD14 (11745864_x_at) / Fold change /veh SAMD14 (11745864_x_at) / RFU NPB (11741838_a_at) / Fold change /veh NPB (11741838_a_at) / RFU TMPRSS6 (11731388_a_at) / Fold change /veh TMPRSS6 (11731388_a_at) / RFU KRTAP10-2 (11738614_at) / Fold change /veh KRTAP10-2 (11738614_at) / RFU ARHGAP8 /// PRR5-ARHGAP8 (11727945_x_at) / Fold change /veh ARHGAP8 /// PRR5-ARHGAP8 (11727945_x_at) / RFU KRTAP5-7 /// NADSYN1 (11734609_at) / Fold change /veh KRTAP5-7 /// NADSYN1 (11734609_at) / RFU RASL12 (11751679_a_at) / Fold change /veh RASL12 (11751679_a_at) / RFU CDKN2B (11736163_a_at) / Fold change /veh CDKN2B (11736163_a_at) / RFU PRF1 (11729649_at) / Fold change /veh PRF1 (11729649_at) / RFU, ZNF638 /// ZNF638-IT1 / Fold change vs veh, ZNF638 /// ZNF638-IT1 / RFU, PANK3 / Fold change vs veh, PANK3 / RFU, SH3YL1 / Fold change vs veh, SH3YL1 / RFU, ZEB2 / Fold change vs veh, ZEB2 / RFU, NRIP1 / Fold change vs veh, NRIP1 / RFU, PTTG1IP / Fold change vs veh, PTTG1IP / RFU, CAPN2 / Fold change vs veh, CAPN2 / RFU, MED14 / Fold change vs veh, MED14 / RFU, SNORA58 / Fold change vs veh, SNORA58 / RFU, C1orf63 / Fold change vs veh, C1orf63 / RFU, LRRFIP1 / Fold change vs veh, LRRFIP1 / RFU, NDUFAF7 / Fold change vs veh, NDUFAF7 / RFU, SLC12A2 / Fold change vs veh, SLC12A2 / RFU, IBTK / Fold change vs veh, IBTK / RFU, ESF1 / Fold change vs veh, ESF1 / Fold change vs veh, TMEM50B / RFU, TAOK1 / Fold change vs veh, TAOK1 / RFU, ACBD3 / Fold change vs veh, ACBD3 / RFU, TMA16 / Fold change vs veh, TMA16 / RFU, RWDD3 / Fold change vs veh, RWDD3 / RFU, BCAT1 / Fold change vs veh, BCAT1 / RFU, EDEM3 / Fold change vs veh, EDEM3 / RFU, TMEM33 / Fold change vs veh, TMEM33 / RFU, WDR75 / Fold change vs veh, WDR75 / RFU, AHCTF1 / Fold change vs veh, AHCTF1 / RFU, TFRC / Fold change vs veh, TFRC / RFU, ZDHHC17 / Fold change vs veh, ZDHHC17 / RFU, NOM1 / Fold change vs veh, NOM1 / RFU, ARL8B / Fold change vs veh, ARL8B / RFU, ZBTB11 / Fold change vs veh, ZBTB11 / RFU, TAMM41 / Fold change vs veh, TAMM41 / RFU, KIAA1704 /// LOC100996395 / Fold change vs veh, KIAA1704 /// LOC100996395 / RFU, ING1 / Fold change vs veh, ING1 / RFU, TRMT61B / Fold change vs veh, TRMT61B / RFU, FUBP3 / Fold change vs veh, FUBP3 / RFU, TP53 / Fold change vs veh, TP53 / RFU, TNKS2 / Fold change vs veh, TNKS2 / RFU, ZFP14 / Fold change vs veh, ZFP14 / RFU, ACTR2 / Fold change vs veh, ACTR2 / RFU, PPP3R1 / Fold change vs veh, PPP3R1 / RFU, PIK3R1 / Fold change vs veh, PIK3R1 / RFU, HNRNPA1 / Fold change vs veh, HNRNPA1 / RFU, RNF170 / Fold change vs veh, RNF170 / RFU, ZNF28 / Fold change vs veh, ZNF28 / RFU, RNGTT / Fold change vs veh, RNGTT / RFU, OGT / Fold change vs veh, OGT / RFU, BRD1 / Fold change vs veh, BRD1 / RFU, MARS / Fold change vs veh, MARS / RFU, ZNF655 / Fold change vs veh, ZNF655 / RFU, FAHD1 / Fold change vs veh, FAHD1 / RFU, BDP1 / Fold change vs veh, BDP1 / RFU, LRRCC1 / Fold change vs veh, LRRCC1 / RFU, ARID1A / Fold change vs veh, ARID1A / RFU, ZNF146 / Fold change vs veh, ZNF146 / RFU, ZNF330 / Fold change vs veh, ZNF330 / RFU, GPN3 / Fold change vs veh, GPN3 / RFU, C9orf123 / Fold change vs veh, C9orf123 / RFU, N4BP2L2 / Fold change vs veh, N4BP2L2 / RFU, ARFIP1 / Fold change vs veh, ARFIP1 / RFU, FAM179B / Fold change vs veh, FAM179B / RFU, BCL10 / Fold change vs veh, BCL10 / RFU, UHRF1BP1L / Fold change vs veh, UHRF1BP1L / RFU, BET1 / Fold change vs veh, BET1 / RFU, CNOT2 / Fold change vs veh, CNOT2 / RFU, ZNF268 / Fold change vs veh, ZNF268 / Fold change vs veh, ZNF507 / RFU, DGCR2 / Fold change vs veh, DGCR2 / RFU, WDSUB1 / Fold change vs veh, WDSUB1 / Fold change vs veh, HSP90B1 /// MIR3652 / RFU, ADSS / Fold change vs veh, ADSS / RFU, GK / Fold change vs veh, GK / RFU, ZNF148 / Fold change vs veh, ZNF148 / RFU, TAF9 / Fold change vs veh, TAF9 / RFU, SLC1A5 / Fold change vs veh, SLC1A5 / RFU, SLMO2 / Fold change vs veh, SLMO2 / RFU, ABCC4 / Fold change vs veh, ABCC4 / RFU, LOC101060439 /// RAP1B / Fold change vs veh, LOC101060439 /// RAP1B / RFU, RFX7 / Fold change vs veh, RFX7 / RFU, GTPBP10 / Fold change vs veh, GTPBP10 / RFU, CNEP1R1 / Fold change vs veh, CNEP1R1 / RFU, BIVM-ERCC5 /// ERCC5 / Fold change vs veh, BIVM-ERCC5 /// ERCC5 / RFU, ILF3 / Fold change vs veh, ILF3 / RFU 11762660_at / Fold change /veh 11762660_at / RFU VCAN (11757783_s_at) / Fold change /veh VCAN (11757783_s_at) / RFU DDX43 (11728927_at) / Fold change /veh DDX43 (11728927_at) / RFU KRT8 (11758188_x_at) / Fold change /veh KRT8 (11758188_x_at) / RFU NKD1 (11759106_at) / Fold change /veh NKD1 (11759106_at) / RFU SRD5A1 (11742802_a_at) / Fold change /veh SRD5A1 (11742802_a_at) / RFU TPSAB1 /// TPSB2 (11721975_s_at) / Fold change /veh TPSAB1 /// TPSB2 (11721975_s_at) / RFU GSTM3 (11746129_a_at) / Fold change /veh GSTM3 (11746129_a_at) / RFU IL23R (11737362_x_at) / Fold change /veh IL23R (11737362_x_at) / RFU TMEM51 (11727254_a_at) / Fold change /veh TMEM51 (11727254_a_at) / RFU PIWIL2 (11732686_x_at) / Fold change /veh PIWIL2 (11732686_x_at) / RFU ORM1 (11744905_x_at) / Fold change /veh ORM1 (11744905_x_at) / RFU CCDC152 (11743942_at) / Fold change /veh CCDC152 (11743942_at) / RFU ECM1 (11717891_a_at) / Fold change /veh ECM1 (11717891_a_at) / RFU IL23R (11748794_a_at) / Fold change /veh IL23R (11748794_a_at) / RFU TNFAIP8L3 (11732012_x_at) / Fold change /veh TNFAIP8L3 (11732012_x_at) / RFU MBOAT4 (11741988_at) / Fold change /veh MBOAT4 (11741988_at) / RFU 11764193_at / Fold change /veh 11764193_at / RFU TMEM53 (11763286_at) / Fold change /veh TMEM53 (11763286_at) / RFU MAGEB2 (11727129_at) / Fold change /veh MAGEB2 (11727129_at) / RFU TMEM200A (11744735_a_at) / Fold change /veh TMEM200A (11744735_a_at) / RFU CCDC152 (11751479_a_at) / Fold change /veh CCDC152 (11751479_a_at) / RFU FAM211A (11726209_a_at) / Fold change /veh FAM211A (11726209_a_at) / RFU RGS16 (11746705_a_at) / Fold change /veh RGS16 (11746705_a_at) / RFU VCAN (11755009_s_at) / Fold change /veh VCAN (11755009_s_at) / RFU RHOB (11743442_s_at) / Fold change /veh RHOB (11743442_s_at) / RFU RGS16 (11720943_a_at) / Fold change /veh RGS16 (11720943_a_at) / RFU RGS16 (11720944_at) / Fold change /veh RGS16 (11720944_at) / RFU, VPS4B / Fold change vs veh, VPS4B / RFU, CREB1 / Fold change vs veh, CREB1 / RFU, DNAJC13 / Fold change vs veh, DNAJC13 / RFU, GNAQ / Fold change vs veh, GNAQ / RFU, CDK5R1 / Fold change vs veh, CDK5R1 / RFU, ZRANB3 / Fold change vs veh, ZRANB3 / RFU, CUL4A / Fold change vs veh, CUL4A / RFU, CCNY / Fold change vs veh, CCNY / RFU, UFL1 / Fold change vs veh, UFL1 / RFU, COG3 / Fold change vs veh, COG3 / RFU, DIAPH2 / Fold change vs veh, DIAPH2 / RFU, SKA2 / Fold change vs veh, SKA2 / RFU, AFF3 / Fold change vs veh, AFF3 / RFU, LMF1 / Fold change vs veh, LMF1 / RFU, IPO11 / Fold change vs veh, IPO11 / RFU, DFFB / Fold change vs veh, DFFB / RFU, FOXP1 / Fold change vs veh, FOXP1 / RFU, CARD8 / Fold change vs veh, CARD8 / RFU, STRN3 / Fold change vs veh, STRN3 / RFU, ADK / Fold change vs veh, ADK / RFU, RASSF2 / Fold change vs veh, RASSF2 / RFU, WIPF1 / Fold change vs veh, WIPF1 / RFU, LARP1B / Fold change vs veh, LARP1B / RFU, RASA1 / Fold change vs veh, RASA1 / RFU, RB1 / Fold change vs veh, RB1 / RFU, PPFIA1 / Fold change vs veh, PPFIA1 / RFU, MAT2A / Fold change vs veh, MAT2A / RFU, CCT5 / Fold change vs veh, CCT5 / RFU, WDR92 / Fold change vs veh, WDR92 / RFU, CUX1 / Fold change vs veh, CUX1 / RFU, TTC7A / Fold change vs veh, TTC7A / RFU, TMEM135 / Fold change vs veh, TMEM135 / RFU, DEPTOR / Fold change vs veh, DEPTOR / RFU, CPM / Fold change vs veh, CPM / RFU, DNAJB6 / Fold change vs veh, DNAJB6 / RFU, CACNA2D3 / Fold change vs veh, CACNA2D3 / RFU, DTX4 / Fold change vs veh, DTX4 / RFU, TFCP2 / Fold change vs veh, TFCP2 / RFU, GMCL1 /// GMCL1P1 / Fold change vs veh, GMCL1 /// GMCL1P1 / RFU, AEBP2 / Fold change vs veh, AEBP2 / RFU, SNHG1 /// SNORD22 /// SNORD25 /// SNORD26 /// SNORD27 /// SNORD28 /// SNORD29 /// SNORD31 / Fold change vs veh, SNHG1 /// SNORD22 /// SNORD25 /// SNORD26 /// SNORD27 /// SNORD28 /// SNORD29 /// SNORD31 / Fold change (Aza/veh), C12orf56 (ProbeSet 11735607_a_at) / Fold change (ACY-1035/veh), C12orf56 (ProbeSet 11735607_a_at) / Fold change (Aza/veh), FGFR1OP (ProbeSet 11751329_s_at) / Fold change (ACY-1035/veh), FGFR1OP (ProbeSet 11751329_s_at) / Fold change (Aza/veh), VPS36 (ProbeSet 11739960_a_at) / Fold change (ACY-1035/veh), VPS36 (ProbeSet 11739960_a_at) / RFU SYPL1 (11715823_x_at) / Fold change /veh SYPL1 (11715823_x_at) / RFU IGFBP7 (11715501_s_at) / Fold change /veh IGFBP7 (11715501_s_at) / RFU REEP3 (11722064_at) / Fold change /veh REEP3 (11722064_at) / RFU IGLL1 (11728026_x_at) / Fold change /veh IGLL1 (11728026_x_at): dose or concentration left out as unconfirmed
Details: MV-4-11 cells, 48 hours

## Nc1ncn([C@@H]2O[C@H](CO)[C@@H](O)[C@H]2O)c(=O)n1 [azacitidine]
  RFU PIWIL2 (11732686_x_at): 15.01 RFU
